Results as given in patent EP0338372A2, “Solubilized pro-drugs” (AMERICAN CYANAMID COMPANY, priority 1988, dated 1989).
Read-outs that look alike come from different tables or passages of the source.

Tests used:
melanotic melanoma B16 = assay: Melanotic Melanoma B16 test; format: in vivo, BDF1 mice
[1] = tested on: lymphocytic leukemia P388; assay: Lymphocytic leukemia P388 test; format: in vivo, BDF1 mice
[2] = pH 7.5
solubility = settings: 0.1 M phosphate buffer, pH 7.5
L1210 leukemia cells = assay: Lymphocytic Leukemia L1210 test; format: in vivo, BDF1 mice
[3] = Dose 25 mg/kg intraperitoneally on days 1, 5 and 9
[4] = Dose 50 mg/kg intraperitoneally on days 1, 5 and 9
[5] = Dose 100 mg/kg intraperitoneally on days 1, 5 and 9
[6] = Dose 200 mg/kg intraperitoneally on days 1, 5 and 9
[7] = Dose 12.5 mg/kg intraperitoneally on days 1, 5 and 9
[8] = Dose 3.25 mg/kg intraperitoneally on days 1, 5 and 9
[9] = Dose 6.25 mg/kg intraperitoneally on days 1, 5 and 9
[10] = Dose 0.39 mg/kg intraperitoneally on days 1, 5 and 9
[11] = Dose 0.78 mg/kg intraperitoneally on days 1, 5 and 9
[12] = Dose 1.56 mg/kg intraperitoneally on days 1, 5 and 9
[13] = Dose 3.12 mg/kg intraperitoneally on days 1, 5 and 9
[14] = Dose 0.19 mg/kg intraperitoneally on days 1, 5 and 9

For CCCC(=O)N1CCN=C1NN=Cc1c2ccccc2c(C=NNC2=NCCN2C(=O)CCC)c2ccccc12 [2,2-(9,10-Anthracenediylbis(methylidyne-1-hydrazinyl-2-ylidene)]bis4,5-dihydro-1-(1-oxobutyl)-1H-imidazole]], the “Median Survival” value (melanotic melanoma B16; [3]) was 26 days, the “T/C x 100 %” value (melanotic melanoma B16; [3]) was 118% and the “Median Survival” value (melanotic melanoma B16; [4]) was 24.5 days. The “T/C x 100 %” value (melanotic melanoma B16; [4]) was 111%, the “Median Survival” value (melanotic melanoma B16; [5]) was 28.5 days and the “T/C x 100 %” value (melanotic melanoma B16; [5]) was 130%. The “Median Survival” value (melanotic melanoma B16; [6]) was 27.5 days, the “T/C x 100 %” value (melanotic melanoma B16; [6]) was 125% and the “Median Survival” value [1, 7] was 12.5 days. The “T/C x 100 %” value [1, 7] was 125%, the “Median Survival” value [1, 3] was 12.5 days and the “T/C x 100 %” value [1, 3] was 125%. The “Median Survival” value [1, 4] was 14 days, the “T/C x 100 %” value [1, 4] was 140% and the “Median Survival” value [1, 5] was 14.5 days. For the same compound, the “T/C x 100 %” value [1, 5] was 145%, the “Median Survival” value [1, 6] was 15.5 days and the “T/C x 100 %” value [1, 6] was 155%.
For CCOP(=O)(OCC)N1CCN(c2cc3c(cc2F)c(=O)c(C(=O)OCCOC)cn3C2CC2)CC1 [Example 49, 1-Cycfopropyl-7-[4-(diethoxyphosphinyl)-1-piperazinyl]-6-fluoro-1,4-dihydro-4-oxo-3-quinolinecarboxylic Acid, 2-Methoxyethyl Ester], the solubility [2] was “easily soluble”.
In the case of O=C(O)c1cn(C2CC2)c2cc(N3CCN(P(=O)(O)O)CC3)c(F)cc2c1=O [Example 47, t-Cyclopropyl-6-fluoro-1,4-dihydro-4-oxo-7-(4-phosphono-1-piperazinyl)-3-quinolinecarboxylic Acid], the solubility (solubility) is reported as “soluble”.
For O=C(O)CCC(=O)N1CCN=C1NN=Cc1c2ccccc2c(C=NNC2=NCCN2C(=O)CCC(=O)O)c2ccccc12 [2,2[9,10-Anthracenediylbis(methylidene-1-hydrazinyl-2-ylidene)]bis[4,5-dihydro-gamma-oxo-1H-imidazole-1-butanoic Acid]], the “Median Survival” value (melanotic melanoma B16; [8]) was greater than 60 days, the “T/C x 100 %” value (melanotic melanoma B16; [8]) was greater than 273% and the “Median Survival” value (melanotic melanoma B16; [9]) was greater than 60 days. The “T/C x 100 %” value (melanotic melanoma B16; [9]) was greater than 273%, the “Median Survival” value (melanotic melanoma B16; [7]) was 55.5 days and the “T/C x 100 %” value (melanotic melanoma B16; [7]) was 252%. The “Median Survival” value (L1210 leukemia cells; [10]) was 11.5 days, the “T/C x 100 %” value (L1210 leukemia cells; [10]) was 135% and the “Median Survival” value (L1210 leukemia cells; [11]) was 11.2 days. For the same compound, the “T/C x 100 %” value (L1210 leukemia cells; [11]) was 132%, the “Median Survival” value (L1210 leukemia cells; [12]) was 12 days and the “T/C x 100 %” value (L1210 leukemia cells; [12]) was 141%. For the same compound, the “Median Survival” value (L1210 leukemia cells; [13]) was 12.3 days, the “T/C x 100 %” value (L1210 leukemia cells; [13]) was 145% and the “Median Survival” value (L1210 leukemia cells; [9]) was 12.2 days. For the same compound, the “T/C x 100 %” value (L1210 leukemia cells; [9]) was 144%, the “Median Survival” value (L1210 leukemia cells; [7]) was 13.2 days and the “T/C x 100 %” value (L1210 leukemia cells; [7]) was 155%. For the same compound, the “Median Survival” value [1, 14] was 15 days, the “T/C x 100 %” value [1, 14] was 150% and the “Median Survival” value [1, 10] was 15.5 days. The “T/C x 100 %” value [1, 10] was 155%, the “Median Survival” value [1, 11] was 17 days and the “T/C x 100 %” value [1, 11] was 170%. For the same compound, the “Median Survival” value [1, 12] was 17 days, the “T/C x 100 %” value [1, 12] was 170% and the “Median Survival” value [1, 13] was 19 days. The “T/C x 100 %” value [1, 13] was 190%, the “Median Survival” value [1, 9] was 19 days and the “T/C x 100 %” value [1, 9] was 190%. For the same compound, the “Median Survival” value [1, 7] was 23 days and the “T/C x 100 %” value [1, 7] was 230%.
